pIC50: −log10 of the molar value. Where a name gives a salt, the structure may show the parent alone.
Experiments:
[1] = system: HCT-15; experiment: Growth inhibition of human HCT-15 cells by SRB assay; type: functional
[2] = system: NUGC-3; experiment: Growth inhibition of human NUGC-3 cells by SRB assay; type: functional
[3] = system: NCI-H23; experiment: Growth inhibition of human NCI-H23 cells by SRB assay; type: functional
[4] = system: ACHN; experiment: Growth inhibition of human ACHN cells by SRB assay; type: functional
[5] = system: PC-3; experiment: Growth inhibition of human PC-3 cells by SRB assay; type: functional
[6] = system: MDA-MB-231; experiment: Growth inhibition of human MDA-MB-231 cells by SRB assay; type: functional
[7] = system: RAW264.7; experiment: Antiinflammatory activity in mouse RAW264.7 cells assessed as reduction in LPS-induced nitric oxide production by griess assay; type: functional, cell-based
[8] = system: RAW264.7; experiment: Antiinflammatory activity in mouse RAW264.7 cells assessed as reduction in LPS-induced IL6 production […]; type: functional, cell-based; conditions: DDE = dose-dependent effect
[9] = system: RAW264.7; experiment: Antiinflammatory activity in mouse RAW264.7 cells assessed as reduction in LPS-induced nitrite production by griess assay; type: functional, cell-based; conditions: DDE = dose-dependent effect
[10] = system: RAW264.7; experiment: Antiinflammatory activity in mouse RAW264.7 cells assessed as reduction in LPS-induced IL6 mRNA expression […]; type: functional, cell-based; conditions: DDE = dose-dependent effect
[11] = system: RAW264.7; experiment: Antiinflammatory activity in mouse RAW264.7 cells assessed as reduction in LPS-induced iNOS mRNA expression […]; type: functional, cell-based; conditions: DDE = dose-dependent effect

| Compound | GI50 [1] | GI50 [3] | GI50 [4] | GI50 [5] | GI50 [6] | pIC50 [7] | GI50 [2] | inhibition [8] | inhibition [9] | inhibition [10] | inhibition [11] |
| --- | --- | --- | --- | --- | --- | --- | --- | --- | --- | --- | --- |
| CC(/C=C/[C@H](C)C(C)C)=C1\CC[C@H]2C3=CC(=O)[C@@]4(O)C[C@@H](O)CC[C@]4(C)[C@@]3(O)CC[C@]12C | > 30 µM | > 30 µM | > 30 µM | > 30 µM | > 30 µM | 4.71 | > 30 µM |  |  |  |  |
| CC(/C=C/[C@H](C)C(C)C)=C1\CC[C@H]2C3=CC(=O)[C@@]4(O)C[C@@H](O)CC[C@]4(C)[C@H]3CC[C@]12C | 13.2 µM | 10.3 µM | 12.5 µM | 13.8 µM | 13.5 µM | 4.94 | 11.5 µM | Dde | Dde | Dde | Dde |
| CC(/C=C/[C@H](C)C(C)C)=C1\[C@H](O)C[C@H]2C3=CC(=O)[C@@]4(O)C[C@@H](O)CC[C@]4(C)[C@H]3CC[C@]12C | > 30 µM | > 30 µM | > 30 µM | > 30 µM | > 30 µM | 4.84 | > 30 µM |  |  |  |  |

These reach a lower GI50 [1]. Values come first.

| GI50 [1] | GI50 [3] | GI50 [4] | GI50 [5] | GI50 [6] | pIC50 [7] | Compound | GI50 [2] | inhibition [8] | inhibition [9] | inhibition [10] | inhibition [11] |
| --- | --- | --- | --- | --- | --- | --- | --- | --- | --- | --- | --- |
| 0.09 µM | 0.08 µM | 0.07 µM | 0.09 µM | 0.08 µM |  | COc1cccc2c1C(=O)c1c(O)c3c(c(O)c1C2=O)C[C@@](O)(C(=O)CO)C[C@@H]3O[C@H]1C[C@H](N)[C@H](O)[C@H](C)O1 [DOXORUBICIN HYDROCHLORIDE] | 0.08 µM |  |  |  |  |
| 4.5 µM | 4.4 µM | 4.3 µM | 3.9 µM | 3.4 µM |  | CC(/C=C/[C@H](C)C(C)C)=C1\[C@H](O)C[C@H]2c3cc4c(c(C)c3CC[C@]12C)CC[C@H](O)C4 | 4.2 µM |  |  |  |  |

Reference: ChEMBL document CHEMBL5126628, “Aspersterols A-D, Ergostane-Type Sterols with an Unusual Unsaturated Side Chain from the Deep-Sea-Derived Fungus Aspergillus unguis” (J Nat Prod, 2022)
